Results on three compounds are retold here after ChEMBL document CHEMBL1134828, “The synthesis of cyclic tetrapeptoid analogues of the antiprotozoal natural product apicidin” (2001).

One assay concerns Plasmodium falciparum. Nature of the assay: Effective dose for antimalarial activity against Plasmodium falciparum. The format is functional. Conditions: read-out: ED50.
The next assay deals with Trypanosoma brucei. Nature of the assay: Effective dose required for antiprotozoal activity against Trypanosoma brucei. As to conditions: read-out: ED50. The format is functional.
The test system of assay [1] is Trypanosoma cruzi. As to the kind of experiment: Effective dose required for antiprotozoal activity against Trypanosoma cruzi. As to conditions: read-out: ED50. The format is functional.
Assay [2] concerns Leishmania donovani. Nature of the assay: Effective dose required for antiprotozoal activity against Leishmania donovani. Format: functional. Conditions: read-out: ED50.
Assay [3] is described as follows: Cytotoxicity tested against KB cells of human nasopharyngeal epithelial cell line. The format is functional. As to conditions: read-out: ED50 (the source's name).
The test system of assay [4] is Trypanosoma cruzi. Nature of the assay: Effective dose required for antiprotozoal activity against Trypanosoma cruzi; T: Toxicity to both mouse macrophage host cells and intracellular parasites prevented determination of antiprotozoal activity. Format: functional, organism-based.
In assay [5] the test system is Leishmania donovani. Nature of the assay: Effective dose required for antiprotozoal activity against Leishmania donovani; T: Toxicity to both mouse macrophage host cells and intracellular parasites prevented determination of antiprotozoal activity. Format: functional, organism-based.

Values after ≈ are worked out from the molar mass of the structure shown.

Turning to `CCC(=O)CCCCC[C@@H]1NC(=O)[C@H]2CCCN2C(=O)[C@H]([C@@H](C)CC)NC[C@H](Cc2c[nH]c3ccccc23)NC1=O`, the EC50 in the assay on Plasmodium falciparum is above 1 µg/mL; with Trypanosoma brucei, 11.1 µg/mL (≈ 19.6 µM); in the assay on Trypanosoma cruzi [1], above 30 µg/mL; in the assay on Leishmania donovani [2], above 30 µg/mL.
On to `CCC(=O)CCCCC[C@@H]1NC(=O)[C@H]2CCCN2C(=O)[C@H]([C@@H](C)CC)N(C(C)=O)C[C@H](Cc2c[nH]c3ccccc23)NC1=O`, for which the EC50 was above 1 µg/mL in the assay on Plasmodium falciparum, 13 µg/mL (≈ 21.3 µM) with Trypanosoma brucei, above 30 µg/mL with Trypanosoma cruzi [1] and above 30 µg/mL with Leishmania donovani [2].
With `CCC(=O)CCCCC[C@@H]1NC(=O)[C@H]2CCCCN2C(=O)[C@H]([C@@H](C)CC)NC(=O)[C@H](Cc2cn(OC)c3ccccc23)NC1=O` [APICIDIN], the EC50 with Plasmodium falciparum turned out to be 0.22 µg/mL (≈ 0.353 µM); in assay [3] it was 200 µg/mL (≈ 321 µM); in the assay on Trypanosoma brucei, 1.9 µg/mL (≈ 3.05 µM). Further, the ED50 result in the assay on Trypanosoma cruzi [4] and with Leishmania donovani [5] was “Toxic” throughout.
